Measured values: patent publication US11076597B2, “High stress resistant plant growth regulator and preparation method and use thereof” (SHANGHAI INSTITUTES FOR BIOLOGICAL SCIENCES, CHINESE …, priority 2015, dated 2021)
Entries after “also recorded” stand apart in the source; their conditions may differ.

How the values were obtained:
cotton = assay: Leaf transpiration experiment, cotton; assay type: in vivo; conditions: 20 μM spray 25 days after sowing, two days after spraying; FIG. 6
Protocol: ABA synthesis mutant aba2-1 was used in Arabidopsis leaf transpiration experiment. […] Therefore, this mutant is used to exclude the effect of endogenous ABA on the transpiration experiment. The plants were sprayed with a solution containing 0.05% tween-20 and corresponding concentrations of (+)-ABA/0224/0304/0706/0715/0428 or 0.05% Tween-20 and 0.05% DMSO (control) after three weeks of continuous watering with an amount of 1.2 ml/pot. Leaf transpiration experiments of soybeans were conducted at 26° C. with long-day lighting and soybeans were sprayed with a solution containing 0.1% tween-20 and 20 μM (+)-ABA/0224/0304 compound or 0.1% Tween-20 and 0.05% DMSO (control) 14 days after sowing with an amount of 4 ml/pot; the leaf transpiration experiments of cottons were sprayed with a solution containing 0.1% tween-20 and 20 μM (+)-ABA/0224 compound or 0.1% Tween-20 and 0.05% DMSO, respectively, 25 days after sowing with an amount of 4 ml/pot; the leaf transpiration experiments of wheats were sprayed with a solution containing 0.1% tween-20 and 100 μM (+)-ABA/0224 compound or 0.1% Tween-20 and 0.05% DMSO (control) 18 days after sowing with an amount of 6 ml/pot. […]
In this experiment, the temperature change of leaf surface was observed and recorded by an infrared camera, thus reflecting the strength of plant transpiration. […]

[1] = biological target: T1, PYL7 receptor-HAB1 protein phosphatase complex (Arabidopsis thaliana, UniProt Q1ECF1); assay: AlphaScreen assay, PYL7 receptor binding to HAB1; assay type: biochemical; design: unit not given beside the values; conditions: fraction of the EC50 of ABA; FIG. 2d
T1 construct: made in house; host or cells: E. coli BL21 (DE3)
T1 sequence (Q1ECF1 1-211): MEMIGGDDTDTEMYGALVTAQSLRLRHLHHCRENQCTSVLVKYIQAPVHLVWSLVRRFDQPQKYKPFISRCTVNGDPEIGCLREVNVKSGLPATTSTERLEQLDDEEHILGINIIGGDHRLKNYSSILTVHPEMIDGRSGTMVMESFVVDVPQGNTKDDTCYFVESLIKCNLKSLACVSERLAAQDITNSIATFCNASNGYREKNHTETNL
T1 sequence (Q9CAJ0 172-511 partner limits assumed): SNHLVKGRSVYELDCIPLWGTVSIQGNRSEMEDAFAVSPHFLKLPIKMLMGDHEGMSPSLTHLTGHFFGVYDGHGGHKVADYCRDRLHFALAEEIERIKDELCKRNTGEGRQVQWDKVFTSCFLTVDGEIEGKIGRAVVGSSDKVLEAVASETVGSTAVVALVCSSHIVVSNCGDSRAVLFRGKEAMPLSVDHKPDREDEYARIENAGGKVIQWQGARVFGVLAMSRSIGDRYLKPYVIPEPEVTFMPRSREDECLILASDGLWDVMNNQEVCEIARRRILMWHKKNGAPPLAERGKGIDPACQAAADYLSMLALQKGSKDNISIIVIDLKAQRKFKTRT
Protocol: (§1) The AlphaScreen kit (available from Perkin Elmer) was used, and the method was as follows: a 10× buffer (50 mM MOPS, pH 7.4, 50 mM NaF, 50 mM CHAPS, 0.1 mg/ml bovine serum albumin) diluted at 1:10, each of 100 nM HAB1 with Biotin tag sequence and PYR1/PYL1/PYL2/PYL7/GmPYL6/OsPYL2 protein with dual tags of 6×His and SUMO sequences, corresponding concentrations of (+)-ABA/0224/0304/0706/0708/0713/0715/0428/NC0F4, and 5 μg/ml donor beads and acceptor beads (available from Perkin Elmer) were contained in 150 μl of experimental system. After incubating for 1.5 hours at room temperature in the dark, it was placed into an Envision Plate Reader (available from Perkin Elmer) under the programmed AlphaScreen procedure for readings.
(§2) AlphaScreen technology was used to test the ability of the compounds of the present invention to promote PYL receptor binding to PP2C protein phosphatase (HAB1).

[2] = biological target: T2, PYL1 receptor-HAB1 protein phosphatase complex (Arabidopsis thaliana, UniProt Q8VZS8); assay: AlphaScreen assay, PYL1 receptor binding to HAB1; assay type: biochemical; conditions: fraction of the EC50 of ABA; FIG. 2b
T2 construct: made in house; host or cells: E. coli BL21 (DE3)
T2 sequence (Q8VZS8 36-211): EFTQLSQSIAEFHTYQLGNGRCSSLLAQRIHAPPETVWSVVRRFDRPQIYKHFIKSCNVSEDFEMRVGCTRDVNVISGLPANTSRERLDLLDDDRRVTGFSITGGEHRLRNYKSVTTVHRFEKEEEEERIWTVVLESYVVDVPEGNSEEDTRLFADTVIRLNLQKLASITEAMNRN
T2 sequence (Q9CAJ0 172-511 partner limits assumed): T1 sequence (Q9CAJ0 172-511 partner limits assumed)
Protocol: as §1, §2

[3] = biological target: T3, PYR1 receptor-HAB1 protein phosphatase complex (Arabidopsis thaliana, UniProt O49686); assay: AlphaScreen assay, PYR1 receptor binding to HAB1; assay type: biochemical; conditions: fraction of the EC50 of ABA; FIG. 2a, 2h
T3 construct: made in house; host or cells: E. coli BL21 (DE3)
T3 sequence (O49686 1-191): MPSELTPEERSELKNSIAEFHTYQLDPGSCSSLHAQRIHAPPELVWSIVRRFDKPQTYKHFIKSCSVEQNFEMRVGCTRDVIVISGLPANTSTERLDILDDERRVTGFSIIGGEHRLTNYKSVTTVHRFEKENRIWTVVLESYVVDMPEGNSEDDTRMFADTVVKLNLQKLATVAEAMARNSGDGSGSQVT
T3 sequence (Q9CAJ0 172-511 partner limits assumed): T1 sequence (Q9CAJ0 172-511 partner limits assumed)
Protocol: as §1, §2

Row | EC50 value with PYL7 receptor-HAB1 complex as fraction of that of ABA [1] | EC50 value with PYL1 receptor-HAB1 complex as fraction of that of ABA [2] | EC50 value with PYR1 receptor-HAB1 complex as fraction of that of ABA [3] | Structure (SMILES) | leaf temperature versus DMSO control (leaf transpiration) (cotton)
1 |  |  |  | CC1=CC(=O)CC(C)(C)[C@@]1(O)/C=C/C(C)=C\C(=O)O [ABA, Abscisic Acid, reference compound] | had no difference from that in the control group
2 | 1/10 | ⅛ | 1/40 | CCCN1C(=O)OC(C)c2cc(NS(=O)(=O)Cc3c(F)c(F)c(C)c(F)c3F)ccc21 (centres unmarked) [Compound 0224] | significantly reduce the transpiration rate of the cotton leaf; also recorded: still significant higher than that of plants in DMSO-sprayed control group
3 | 1/10 | 1/7 | 1/24 | CCCN1C(=O)OC(C)(C)c2cc(NS(=O)(=O)Cc3c(F)c(F)c(C)c(F)c3F)ccc21 [Compound 0304] | 
